PubChem BioAssay (NCI)
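Each compound was tested at five concentrations against cells in 96-well plates for 48 hours. TGI: concentration producing complete growth inhibition.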

Legend:
Test in all cases: NCI tumour cell line growth inhibition, 48 h
[1] = system: A498 renal
[2] = system: ACHN renal
[3] = system: CCRF-CEM leukemia
[4] = system: COLO 205 colon
[5] = system: DMS 114 small cell lung
[6] = system: DMS 273 small cell lung
[7] = system: HCT-15 colon
[8] = system: HL-60(TB) leukemia
[9] = system: HOP-18 NSCLC
[10] = system: HOP-92 NSCLC
[11] = system: IGROV1 ovarian
[12] = system: K-562 leukemia
[13] = system: KM20L2 colon
[14] = system: LOX IMVI melanoma
[15] = system: LXFL 529 NSCLC
[16] = system: M14 melanoma
[17] = system: M19-MEL melanoma
[18] = system: MOLT-4 leukemia
[19] = system: NCI-H23 lung
[20] = system: NCI-H460 lung
[21] = system: OVCAR-4 ovarian
[22] = system: RPMI-8226 leukemia
[23] = system: RXF 393 renal
[24] = system: RXF-631 renal
[25] = system: SF-539 CNS
[26] = system: SK-MEL-28 melanoma
[27] = system: SK-OV-3 ovarian
[28] = system: SN12C renal
[29] = system: SNB-19 CNS
[30] = system: SNB-75 CNS
[31] = system: SNB-78 CNS
[32] = system: U251 CNS
[33] = system: UACC-62 melanoma
[34] = system: XF 498 CNS
[35] = system: 786-0 renal
[36] = system: A549 NSCLC
[37] = system: CAKI-1 renal
[38] = system: DLD-1 colon
[39] = system: EKVX NSCLC
[40] = system: HCC-2998 colon
[41] = system: HCT-116 colon
[42] = system: HOP-62 NSCLC
[43] = system: HT29 colon
[44] = system: KM12 colon
[45] = system: MALME-3M melanoma
[46] = system: NCI-H226 lung
[47] = system: NCI-H522 lung
[48] = system: OVCAR-3 ovarian
[49] = system: OVCAR-5 ovarian
[50] = system: OVCAR-8 ovarian
[51] = system: SF-268 CNS
[52] = system: SF-295 CNS
[53] = system: SK-MEL-2 melanoma
[54] = system: SK-MEL-5 melanoma
[55] = system: SW-620 colon
[56] = system: TK-10 renal
[57] = system: UACC-257 melanoma
[58] = system: UO-31 renal

Measured: TGI

C/C(Cc1ccccc1)=N\NC(N)=S
not listed: [35] | [36] | [37] | [38] | [39] | [40] | [41] | [42] | [43] | [44] | [45] | [46] | [47] | [48] | [49] | [50] | [51] | [52] | [53] | [54] | [55] | [56] | [57] | [58]
> 100 µM: all other assays above

Cc1ccccc1N1C(=O)C2C=CC(n3[nH]c(=O)n(Cc4ccccc4)c3=O)CC2C1=O (stereo not given)
not listed: [21] | [24]
> 100 µM: all other assays above
